Assay results: ChEMBL document CHEMBL1130210, “Steroidal glycoside cholesterol absorption inhibitors” (1997)

Test system: Cricetinae gen. sp.
Assay: Ability to inhibit the intestinal absorption of [3H]cholesterol in cholesterol-fed hamsters
Type: functional

Compound | ED50
C[C@@H]1CC[C@@]2(OC1)OC1CC3C4CC[C@H]5C[C@@H](O[C@@H]6O[C@@H](CO)[C@@H](O[C@@H]7O[C@@H](COC(=O)Nc8ccccc8F)[C@@H](OC(=O)Nc8ccccc8F)[C@H](O)[C@@H]7O)[C@H](O)[C@@H]6O)CC[C@]5(C)C4CC[C@]3(C)C1[C@@H]2C (some centres not stated) | 1 mg/kg
C[C@@H]1CC[C@@]2(OC1)O[C@H]1C[C@H]3[C@@H]4CC[C@H]5C[C@@H](O[C@@H]6O[C@H](CO)[C@H](O)[C@H](O)[C@H]6O)CC[C@]5(C)[C@H]4C(=O)C[C@]3(C)[C@H]1[C@@H]2C | 12 mg/kg
C[C@@H]1CC[C@@]2(OC1)OC1CC3C4CC[C@H]5C[C@@H](O[C@@H]6O[C@@H](CO)[C@@H](O[C@@H]7O[C@@H](COC(=S)Nc8ccccc8)[C@@H](OC(=S)Nc8ccccc8)[C@H](O)[C@@H]7O)[C@H](O)[C@@H]6O)CC[C@]5(C)C4C(=O)C[C@]3(C)C1[C@@H]2C (some centres not stated) | 0.04 mg/kg
CC1CC[C@@]2(OC1)OC1C[C@H]3[C@@H]4CC[C@H]5C[C@@H](OC6OC(CI)C(OC7OC(CI)C(O)C(O)C7O)C(O)C6O)CC[C@]5(C)[C@H]4C(=O)C[C@]3(C)C1[C@@H]2C (some centres not stated) | 1.5 mg/kg
C[C@@H]1CC[C@@]2(OC1)OC1CC3C4CC[C@H]5C[C@@H](O[C@@H]6O[C@@H](CO)[C@@H](O[C@@H]7O[C@@H](COC(=O)Nc8ccc(F)cc8)[C@@H](OC(=O)Nc8ccc(F)cc8)[C@H](O)[C@@H]7O)[C@H](O)[C@@H]6O)CC[C@]5(C)C4C(=O)C[C@]3(C)C1[C@@H]2C (some centres not stated) | 0.2 mg/kg
C[C@H]1CC[C@@]2(OC1)O[C@H]1C[C@H]3[C@@H]4CC[C@@H]5C[C@@H](O[C@@H]6O[C@@H](CO)[C@@H](O[C@@H]7O[C@@H](CO)[C@@H](O)[C@H](O)[C@@H]7O)[C@H](O)[C@@H]6O)CC[C@]5(C)[C@H]4CC[C@]3(C)C1[C@@H]2C (some centres not stated) | 75 mg/kg
CCOC(=O)CNC(=O)OC[C@@H]1O[C@@H](O[C@H]2[C@H](O)[C@H](O)[C@H](O[C@H]3CC[C@]4(C)C5C(=O)C[C@@]6(C)C(CC7O[C@]8(CC[C@@H](C)CO8)[C@@H](C)C76)C5CC[C@H]4C3)O[C@H]2CO)[C@@H](O)[C@@H](O)[C@@H]1OC(=O)NCC(=O)OCC (some centres not stated) | 0.6 mg/kg
CC(C)CCC[C@@H](C)C1CC[C@H]2[C@@H]3CC[C@H]4C[C@@H](O[C@@H]5O[C@@H](CO)[C@@H](O[C@@H]6O[C@@H](CO)[C@@H](O)[C@H](O)[C@@H]6O)[C@H](O)[C@@H]5O)CC[C@]4(C)[C@H]3CC[C@]12C (some centres not stated) | 150 mg/kg
C[C@@H]1CC[C@@]2(OC1)O[C@H]1C[C@H]3[C@@H]4CC[C@H]5C[C@@H](O[C@@H]6O[C@H](CO)[C@@H](O)[C@H](O)[C@H]6O)CC[C@]5(C)[C@H]4C(=O)C[C@]3(C)[C@H]1[C@@H]2C | 16 mg/kg
C[C@@H]1CC[C@@]2(OC1)OC1CC3C4CC[C@H]5C[C@@H](O[C@@H]6O[C@@H](CO)[C@@H](O[C@@H]7O[C@@H](COC(=O)Nc8ccc(F)cc8F)[C@@H](OC(=O)Nc8ccc(F)cc8F)[C@H](O)[C@@H]7O)[C@H](O)[C@@H]6O)CC[C@]5(C)C4C(=O)C[C@]3(C)C1[C@@H]2C (some centres not stated) | 0.04 mg/kg
C[C@@H]1CC[C@@]2(OC1)OC1CC3C4CC[C@H]5C[C@@H](O[C@@H]6O[C@@H](COC(=O)Nc7c(Cl)cccc7Cl)[C@@H](O[C@@H]7O[C@@H](COC(=O)Nc8c(Cl)cccc8Cl)[C@@H](O)[C@H](O)[C@@H]7O)[C@H](O)[C@@H]6O)CC[C@]5(C)C4C(=O)C[C@]3(C)C1[C@@H]2C (some centres not stated) | 0.4 mg/kg
C[C@@H]1CC[C@@]2(OC1)OC1CC3C4CC[C@H]5C[C@@H](O[C@@H]6O[C@@H](CO)[C@@H](O[C@@H]7O[C@@H](COC(=O)NCc8ccccc8)[C@@H](O)[C@H](O)[C@@H]7O)[C@H](O)[C@@H]6O)CC[C@]5(C)C4C(=O)C[C@]3(C)C1[C@@H]2C (some centres not stated) | 5 mg/kg
C[C@@H]1CC[C@@]2(OC1)OC1CC3C4CC[C@H]5C[C@@H](O[C@@H]6O[C@@H](CO)[C@@H](O[C@@H]7O[C@@H](COC(=O)NCCc8ccccc8)[C@@H](O)[C@H](O)[C@@H]7O)[C@H](O)[C@@H]6O)CC[C@]5(C)C4C(=O)C[C@]3(C)C1[C@@H]2C (some centres not stated) | 5 mg/kg
CC1CC[C@@]2(OC1)OC1C[C@H]3[C@@H]4CC[C@H]5C[C@@H](O[C@@H]6O[C@@H](CO)C(O[C@@H]7O[C@@H](COC(=O)Nc8ccccc8Cl)[C@@H](OC(=O)Nc8ccccc8Cl)[C@H](O)[C@@H]7O)[C@@H](O)[C@@H]6O)CC[C@]5(C)[C@H]4C(=O)C[C@]3(C)C1[C@@H]2C (some centres not stated) | 1 mg/kg
C[C@@H]1CC[C@@]2(OC1)OC1CC3C4CC[C@H]5C[C@@H](O[C@@H]6O[C@@H](COC(=O)Nc7ccccc7F)[C@@H](O[C@@H]7O[C@@H](CO)[C@@H](O)[C@H](O)[C@@H]7O)[C@H](O)[C@@H]6O)CC[C@]5(C)C4C(=O)C[C@]3(C)C1[C@@H]2C (some centres not stated) | 7 mg/kg
C[C@@H]1CC[C@@]2(OC1)OC1CC3C4CC[C@H]5C[C@@H](O[C@@H]6O[C@@H](CO)[C@@H](O[C@@H]7O[C@@H](COC(=O)Nc8ccccc8F)[C@@H](OC(=O)Nc8ccccc8F)[C@H](O)[C@@H]7O)[C@H](O)[C@@H]6O)CC[C@]5(C)C4CC(=O)[C@]3(C)C1[C@@H]2C (some centres not stated) | 0.07 mg/kg

Compound | ED50
C[C@@H]1CC[C@@]2(OC1)OC1CC3C4CC[C@H]5C[C@@H](O[C@@H]6O[C@@H](CO)[C@@H](O[C@@H]7O[C@@H](COC(=O)Nc8cccc(F)c8)[C@@H](OC(=O)Nc8cccc(F)c8)[C@H](O)[C@@H]7O)[C@H](O)[C@@H]6O)CC[C@]5(C)C4C(=O)C[C@]3(C)C1[C@@H]2C (some centres not stated) | 0.1 mg/kg
C[C@@H]1CC[C@@]2(OC1)OC1C[C@H]3[C@@H]4CC[C@H]5C[C@@H](O[C@@H]6O[C@@H](CO)[C@@H](O[C@@H]7O[C@@H](COC(=O)Nc8ccccc8F)[C@@H](O)[C@H](O)[C@@H]7O)[C@H](O)[C@@H]6O)CC[C@]5(C)[C@H]4C(=O)C[C@]3(C)C1[C@@H]2C (some centres not stated) | 0.2 mg/kg
CC1CC[C@@]2(OC1)OC1C[C@H]3[C@@H]4CC[C@H]5C[C@@H](O[C@@H]6O[C@@H](CO)[C@@H](O[C@@H]7O[C@@H](COC(=O)N8CCOCC8)[C@@H](OC(=O)N8CCOCC8)[C@H](O)C7O)[C@H](O)[C@@H]6O)CC[C@]5(C)[C@H]4C(=O)C[C@]3(C)C1[C@@H]2C (some centres not stated) | 4 mg/kg
C[C@@H]1CC[C@@]2(OC1)OC1CC3C4CC[C@H]5C[C@@H](O[C@@H]6O[C@@H](COC(=O)Nc7ccccc7)[C@@H](O[C@@H]7O[C@@H](COC(=O)Nc8ccccc8)[C@@H](O)[C@H](O)[C@@H]7O)[C@H](O)[C@@H]6O)CC[C@]5(C)C4C(=O)C[C@]3(C)C1[C@@H]2C (some centres not stated) | 5 mg/kg
CC1CC[C@@]2(OC1)OC1C[C@H]3[C@@H]4CC[C@H]5C[C@@H](OC6OC(CCl)C(OC7OC(CCl)C(O)C(O)C7O)C(O)C6O)CC[C@]5(C)[C@H]4C(=O)C[C@]3(C)C1[C@@H]2C (some centres not stated) | 0.5 mg/kg
C[C@@H]1CC[C@@]2(OC1)OC1CC3C4CC[C@H]5C[C@@H](O[C@@H]6O[C@@H](CO)[C@@H](O[C@@H]7O[C@@H](COC(=O)NCc8ccccc8)[C@@H](OC(=O)NCc8ccccc8)[C@H](O)[C@@H]7O)[C@H](O)[C@@H]6O)CC[C@]5(C)C4C(=O)C[C@]3(C)C1[C@@H]2C (some centres not stated) | 0.3 mg/kg
C[C@@H]1CC[C@@]2(OC1)OC1CC3C4CC[C@H]5C[C@@H](O[C@@H]6O[C@@H](COC(=O)Nc7ccccc7F)[C@@H](O[C@@H]7O[C@@H](COC(=O)Nc8ccccc8F)[C@@H](O)[C@H](O)[C@@H]7O)[C@H](O)[C@@H]6O)CC[C@]5(C)C4C(=O)C[C@]3(C)C1[C@@H]2C (some centres not stated) | 0.8 mg/kg
Cc1ccccc1NC(=O)OC[C@@H]1O[C@@H](O[C@H]2[C@H](O)[C@H](O)[C@H](O[C@H]3CC[C@]4(C)C5C(=O)C[C@@]6(C)C(CC7O[C@]8(CC[C@@H](C)CO8)[C@@H](C)C76)C5CC[C@H]4C3)O[C@H]2CO)[C@@H](O)[C@@H](O)[C@@H]1O (some centres not stated) | 0.5 mg/kg
C[C@@H]1CC[C@@]2(OC1)O[C@H]1C[C@H]3[C@@H]4CC=C5C[C@@H](O[C@@H]6O[C@@H](CO)[C@@H](O[C@@H]7O[C@@H](CO)[C@@H](O)[C@H](O)[C@@H]7O)[C@H](O)[C@@H]6O)CC[C@]5(C)[C@H]4CC[C@]3(C)[C@H]1[C@@H]2C | 100 mg/kg
C[C@@H]1CC[C@@]2(OC1)OC1CC3C4CC[C@H]5C[C@@H](O[C@@H]6O[C@@H](CO)[C@@H](O[C@@H]7O[C@@H](COC(=O)Nc8c(Cl)cccc8Cl)[C@@H](O)[C@H](O)[C@@H]7O)[C@H](O)[C@@H]6O)CC[C@]5(C)C4C(=O)C[C@]3(C)C1[C@@H]2C (some centres not stated) | 0.2 mg/kg
C[C@@H]1CC[C@@]2(OC1)OC1CC3C4CC[C@H]5C[C@@H](O[C@@H]6O[C@@H](CO)[C@@H](O[C@@H]7O[C@@H](COC(=O)Nc8ccc(Cl)cc8)[C@@H](O)[C@H](O)[C@@H]7O)[C@H](O)[C@@H]6O)CC[C@]5(C)C4C(=O)C[C@]3(C)C1[C@@H]2C (some centres not stated) | 1 mg/kg
C[C@]12CC[C@H](O[C@@H]3O[C@@H](CO)[C@@H](O[C@@H]4O[C@@H](CO)[C@@H](O)[C@H](O)[C@@H]4O)[C@H](O)[C@@H]3O)C[C@@H]1CC[C@@H]1[C@@H]2CC[C@]2(C)C(=O)CC[C@@H]12 | 25 mg/kg
C[C@@H]1CC[C@@]2(OC1)OC1CC3C4CC[C@H]5C[C@@H](O[C@@H]6O[C@@H](COC(=O)Nc7ccc(Cl)cc7)[C@@H](O[C@@H]7O[C@@H](COC(=O)Nc8ccc(Cl)cc8)[C@@H](O)[C@H](O)[C@@H]7O)[C@H](O)[C@@H]6O)CC[C@]5(C)C4C(=O)C[C@]3(C)C1[C@@H]2C (some centres not stated) | 5 mg/kg
CCOCOC[C@@H]1O[C@@H](O[C@H]2[C@H](O)[C@H](O)[C@H](O[C@H]3CC[C@]4(C)C5C(=O)C[C@@]6(C)C(CC7O[C@]8(CC[C@@H](C)CO8)[C@@H](C)C76)C5CC[C@H]4C3)O[C@H]2COCOCC)[C@@H](O)[C@@H](O)[C@@H]1O (some centres not stated) | 3 mg/kg
C[C@@H]1CC[C@@]2(OC1)OC1CC3C4CC[C@H]5C[C@@H](O[C@@H]6O[C@@H](CO)[C@@H](O[C@@H]7O[C@@H](COC(=O)Nc8ccccc8)[C@@H](OC(=O)Nc8ccccc8)[C@H](O)[C@@H]7O)[C@H](O)[C@@H]6O)CC[C@]5(C)C4C(=O)C[C@]3(C)C1[C@@H]2C (some centres not stated) | 0.1 mg/kg
C[C@@H]1CC[C@@]2(OC1)OC1CC3C4CC[C@H]5C[C@@H](O[C@@H]6O[C@@H](CO)[C@@H](O[C@@H]7O[C@@H](COC(=O)N8CCCC8)[C@@H](O)[C@H](O)[C@@H]7O)[C@H](O)[C@@H]6O)CC[C@]5(C)C4C(=O)C[C@]3(C)C1[C@@H]2C (some centres not stated) | 1.5 mg/kg
